In patent publication US10125134B2 (Mirati Therapeutics, Inc., priority 2016, dated 2018):
Where two headings read alike, the source gives them in different places.

Legend:
[1] = test system: NCI-H358 cells (express KRas G12C), Phospho-ERK; assay: Cellular inhibition of KRas G12C: Phospho-ERK in NCI-H358 cells; assay type: cell-based; conditions: pERK(Thr202/Tyr204) normalized with GAPDH, NCI-H358 cells, 3 hours, read-out: IC50
Method in brief: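 IC50 derived by 4-parameter fit of GAPDH-normalized pERK(Thr202/Tyr204) signal, as percent of DMSO control. Signal came from in-cell immunodetection with infrared secondaries after 3 h compound exposure of KRas G12C NCI-H358 cells at 0.5% DMSO.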

[2] = biological target: KRas G12C (Homo sapiens, UniProt P01116, C118S/C51S/C80L/G12C); assay: KRas G12C Modification Assay (LCMS detection of covalent adduct); assay type: binding; conditions: normalized percent of control, tested at 5 μM concentration for 3 hours
Method in brief: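 Cys-light KRas G12C mutant protein incubated with compound in K-Ras assay buffer, reactions quenched at set time points with 25 mM acetic acid and analysed by intact-protein LC/MS on a C-3 column. Deconvoluted mass heights expressed as percent of control (POC) relative to compound-free protein.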

| Compound | POC [2] | POC ([2]; 5 µM) | IC50 ([1]; Homo sapiens, NCI-H358, 3 h) [µM] | IC50 ([1]; Homo sapiens) [µM] | IC50 [1] [µM] |
| --- | --- | --- | --- | --- | --- |
| C=CC(=O)N1CCN(c2nc(OCCCN3C[C@@H](F)[C@@H](F)C3)nc3c2CCN(c2cc(O)cc4ccccc24)C3)CC1 [Example 208, 1-(4-(2-(3-((3R,4S)-3,4-difluoropyrrolidin-1-yl)propoxy)-7-(3-hydroxynaphthalen-1-yl)-5,6,7,8-tetrahydropyrido[3,4-d]pyrimidin-4-yl)piperazin-1-yl)prop-2-en-1-one] | C (“C”>50% POC) |  |  | > 1 |  |
| C=CC(=O)N1CCN(c2nc(OCCCN3C[C@@H]4C[C@H]3CO4)nc3c2CCN(c2c(C)ccc4[nH]ncc24)C3)CC1 [Example 181, 1-(4-(2-(3-((1 S,4S)-2-oxa-5-azabicyclo[2.2.1]heptan-5-yl)propoxy)-7-(5-methyl-1H-indazol-4-yl)-5,6,7,8-tetrahydropyrido[3,4-d]pyrimidin-4-yl)piperazin-1-yl)prop-2-en-1-one] | C (“C”>50% POC) |  |  | > 1 |  |
| C=CC(=O)N1CCN(c2nc(OCCCN3CCOCC3)nc3c2CCN(c2cc(O)cc4ccccc24)C3)C(CO)C1 (stereo not drawn) [Example 168, 1-(3-(hydroxymethyl)-4-(7-(3-hydroxynaphthalen-1-yl)-2-(3-morpholinopropoxy)-5,6,7,8-tetrahydropyrido[3,4-d]pyrimidin-4-yl)piperazin-1-yl)prop-2-en-1-one] | C (“C”>50% POC) |  |  | > 1 |  |
| C=CC(=O)N1CCN(c2nc(OCCCN3CCOCC3)nc3c2CCN(c2c(C)ccc4[nH]ccc24)C3)CC1 [Example 209, 1-(4-(7-(5-methyl-1H-indol-4-yl)-2-(3-morpholinopropoxy)-5,6,7,8-tetrahydropyrido[3,4-d]pyrimidin-4-yl)piperazin-1-yl)prop-2-en-1-one] | C (“C”>50% POC) |  |  | > 1 |  |
| C=CC(=O)N1CCN(c2nc(OC[C@@H]3CCCN3C(C)C)nc3c2CCN(c2cccc4ccccc24)C3)CC1CC#N (stereo partly drawn) [Example 285, 2-[4-[2-[[(2S)-1-isopropylpyrrolidin-2-yl]methoxy]-7-(1-naphthyl)-6,8-dihydro-5H-pyrido[3,4-d]pyrimidin-4-yl]-1-prop-2-enoyl-piperazin-2-yl]acetonitrile] | C (“C”>50% POC) |  | 0.0001 to 1 |  |  |
| C=CC(=O)N1CCN(c2nc(OCC3CCN(C4CCCCC4)C3)nc3c2CCN(c2cc(O)cc4ccccc24)C3)CC1 (stereo not drawn) [Example 132, 1-[4-[2-[(1-cyclohexylpyrrolidin-3-yl)methoxy]-7-(3-hydroxy-1-naphthyl)-6,8-dihydro-5H-pyrido[3,4-d]pyrimidin-4-yl]piperazin-1-yl]prop-2-en-1-one] | C (“C”>50% POC) |  | 0.0001 to 1 |  |  |
| C=CC(=O)N1CCN(c2nc(OC[C@@H]3CCCN3C)nc3c2CCN(c2ccccc2OC(F)(F)F)C3)CC1CC#N (stereo partly drawn) [Example 211, 2-(1-acryloyl-4-(2-(((S)-1-methylpyrrolidin-2-yl)methoxy)-7-(2-(trifluoromethoxy)phenyl)-5,6,7,8-tetrahydropyrido[3,4-d]pyrimidin-4-yl)piperazin-2-yl)acetonitrile] | C (“C”>50% POC) |  | 0.0001 to 1 |  |  |
| C=CC(=O)N1CCN(c2ncnc3c2CC(=O)N(c2cc(O)cc4ccccc24)C3)CC1 [Example 113, 4-(4-acryloylpiperazin-1-yl)-7-(3-hydroxynaphthalen-1-yl)-7,8-dihydropyrido[3,4-d]pyrimidin-6(5H)-one] | C (“C”>50% POC) |  |  | > 1 |  |
| C=CC(=O)N1CCN(c2nc(OCCCN3CCOCC3)nc3c2CCN(c2cc(O)cc4ccccc24)C3)CC1 [Example 74, 1-(4-(7-(3-hydroxynaphthalen-1-yl)-2-(3-morpholinopropoxy)-5,6,7,8-tetrahydropyrido[3,4-d]pyrimidin-4-yl)piperazin-1-yl)prop-2-en-1-one] | C (“C”>50% POC) |  | 0.0001 to 1 |  |  |

Further lines, with some results ahead:

| POC [2] | POC ([2]; 5 µM) | Compound | IC50 ([1]; Homo sapiens, NCI-H358, 3 h) [µM] | IC50 ([1]; Homo sapiens) [µM] | IC50 [1] [µM] |
| --- | --- | --- | --- | --- | --- |
| C (“C”>50% POC) |  | C=CC(=O)N1CCN(c2nc(OC[C@H]3CCCN3C)nc3c2CCN(c2cccc(F)c2C(F)(F)F)C3)C[C@@H]1CC#N [Example 274, 2-((S)-1-acryloyl-4-(7-(3-fluoro-2-(trifluoromethyl)phenyl)-2-(((R)-1-methylpyrrolidin-2-yl)methoxy)-5,6,7,8-tetrahydropyrido[3,4-d]pyrimidin-4-yl)piperazin-2-yl)acetonitrile] | 0.0001 to 1 |  |  |
| C (“C”>50% POC) |  | C=CC(=O)N1CCN(c2nc(OC[C@@H]3C[C@@H](O)CN3C)nc3c2CCN(c2cccc4ccccc24)C3)CC1CC#N (stereo partly drawn) [Example 218, 2-(1-acryloyl-4-(2-(((2S,4R)-4-hydroxy-1-methylpyrrolidin-2-yl)methoxy)-7-(naphthalen-1-yl)-5,6,7,8-tetrahydropyrido[3,4-d]pyrimidin-4-yl)piperazin-2-yl)acetonitrile] | 0.0001 to 1 |  |  |
| C (“C”>50% POC) |  | CN1CCC[C@H]1COc1nc2c(c(N3CCN(C(=O)OCc4ccccc4)C(CC#N)C3)n1)CCN(c1ncccc1C(F)(F)F)C2 (stereo partly drawn) [Example 241, benzyl 2-(cyanomethyl)-4-(2-(((S)-1-methylpyrrolidin-2-yl)methoxy)-7-(3-(trifluoromethyl)pyridin-2-yl)-5,6,7,8-tetrahydropyrido[3,4-d]pyrimidin-4-yl)piperazine-1-carboxylate] | > 1 |  |  |
| C (“C”>50% POC) |  | C=CC(=O)N1CCN(c2nc(OC[C@@H]3CCCN3C)nc3c2CCN(c2cccc(F)c2OC)C3)CC1CC#N (stereo partly drawn) [Example 308, 2-[4-[7-(3-fluoro-2-methoxy-phenyl)-2-[[(2S)-1-methylpyrrolidin-2-yl]methoxy]-6,8-dihydro-5H-pyrido[3,4-d]pyrimidin-4-yl]-1-prop-2-enoyl-piperazin-2-yl]acetonitrile] | 0.0001 to 1 |  |  |
| C (“C”>50% POC) |  | C=CC(=O)N1CCN(c2nc(OC[C@H]3CCCN3C)nc3c2CCN(c2ccc(F)c4ccccc24)C3)C[C@@H]1CC#N [Example 318, 2-[(2S)-4-[7-(4-fluoro-1-naphthyl)-2-[[(2R)-1-methylpyrrolidin-2-yl]methoxy]-6,8-dihydro-5H-pyrido[3,4-d]pyrimidin-4-yl]-1-prop-2-enoyl-piperazin-2-yl]acetonitrile] | 0.0001 to 1 |  |  |
| C (“C”>50% POC) |  | Cc1cccc(N2CCc3c(nc(OC[C@@H]4C[C@@H](F)CN4C)nc3N3CCN(C(=O)/C=C/CN(C)C)[C@@H](CC#N)C3)C2)c1C [Example 436, 2-((S)-1-((E)-4-(dimethylamino)but-2-enoyl)-4-(7-(2,3-dimethylphenyl)-2-(((2S,4R)-4-fluoro-1-methylpyrrolidin-2-yl)methoxy)-5,6,7,8-tetrahydropyrido[3,4-d]pyrimidin-4-yl)piperazin-2-yl)acetonitrile] |  | 0.0001 to 1 |  |
| C (“C”>50% POC) |  | C=CC(=O)N1CCN(c2nc(OC[C@@H]3CCCN3C)nc3c2CCN(c2cccc(OC)c2F)C3)CC1CC#N (stereo partly drawn) [Example 307, 2-[4-[7-(2-fluoro-3-methoxy-phenyl)-2-[[(2S)-1-methylpyrrolidin-2-yl]methoxy]-6,8-dihydro-5H-pyrido[3,4-d]pyrimidin-4-yl]-1-prop-2-enoyl-piperazin-2-yl]acetonitrile] | > 1 |  |  |
| C (“C”>50% POC) |  | C=CC(=O)N1CCN(c2nc(OC[C@@H]3CCCN3C)nc3c2CCN(c2cccc4ncccc24)C3)CC1CC#N (stereo partly drawn) [Example 294, 2-[4-[2-[[(2S)-1-methylpyrrolidin-2-yl]methoxy]-7-(5-quinolyl)-6,8-dihydro-5H-pyrido[3,4-d]pyrimidin-4-yl]-1-prop-2-enoyl-piperazin-2-yl]acetonitrile] |  |  | > 1 |
| A (“A”≤25% POC) |  | C=CC(=O)N1CCN(c2nc(OC[C@@H]3C[C@@H](F)CN3C)nc3c2CCN(c2cc(OC)cc4ccccc24)C3)CC1 [Example 355, 1-[4-[2-[[(2S,4R)-4-fluoro-1-methyl-pyrrolidin-2-yl]methoxy]-7-(3-methoxy-1-naphthyl)-6,8-dihydro-5H-pyrido[3,4-d]pyrimidin-4-yl]piperazin-1-yl]prop-2-en-1-one] | > 1 |  |  |
|  | A (“A”≤25% POC) | C=CC(=O)N1CCN(c2nc(OC[C@@H]3CCCN3C)nc3c2CCN(c2ccnc4ccccc24)C3)CC1CC#N (stereo partly drawn) [Example 295, 2-[4-[2-[[(2S)-1-methylpyrrolidin-2-yl]methoxy]-7-(4-quinolyl)-6,8-dihydro-5H-pyrido[3,4-d]pyrimidin-4-yl]-1-prop-2-enoyl-piperazin-2-yl]acetonitrile] |  |  | > 1 |
| C (“C”>50% POC) |  | C=CC(=O)N1CCN(c2nc(OC[C@@H]3CCCN3C)nc3c2CCN(c2cccc4cccc(F)c24)C3)C[C@@H]1CC#N [Example 338, 2-((S)-1-acryloyl-4-(7-(8-fluoronaphthalen-1-yl)-2-(((S)-1-methylpyrrolidin-2-yl)methoxy)-5,6,7,8-tetrahydropyrido[3,4-d]pyrimidin-4-yl)piperazin-2-yl)acetonitrile] | 0.0001 to 1 |  |  |
| C (“C”>50% POC) |  | C=CC(=O)N1CCN(c2nc(O[C@H](C)[C@H]3CCCN3C)nc3c2CCN(c2cc(O)cc4ccccc24)C3)C[C@@H]1CC#N [Example 348, 2-[(2S)-4-[7-(3-hydroxy-1-naphthyl)-2-[(1R)-1-[(2R)-1-methylpyrrolidin-2-yl]ethoxy]-6,8-dihydro-5H-pyrido[3,4-d]pyrimidin-4-yl]-1-prop-2-enoyl-piperazin-2-yl]acetonitrile] | 0.0001 to 1 |  |  |
